# Assay results from patent US6287840A (Axys Pharmaceuticals, Inc., priority 1999, dated 2001).
# Peptide text beside a SMILES is read from it. * marks the point of attachment. X1 = CS(=O)(=O)C=CC(CC(=O)O)N*
# Key:
# Cloned cathepsin S = molecular target: T1, Cloned cathepsin S (Homo sapiens, UniProt P25774); experiment: Inhibition of cathepsin S, Z-Val-Val-Arg-AMC fluorescence progress curves; type: biochemical; conditions: for kobs /[I]* (approximate second-order inactivation constant) / kinact/KI: values marked *; for kinact/KI: read-out: kobs /[I]* (approximate second-order inactivation constant)
# T1 construct: made in house
# Procedure: Stock solutions of the various inhibitors (10 mM) were made in DMF; dilutions were made in the same solvent. Cloned cathepsin S, (see Bromme et al., J. Biol. Chem. 268(&): 4832-4838 (1993)) was less than 1 nM in the assay. The assay buffer contained 100 mM phosphate at pH 6.5, 0.01% Triton, 2.5 mM dithiothreitol (DTT), and 2.5 mM ethylenediaminetetraacetic acid (EDTA). The substrate for cathepsin S was 10 μM Z-Val-Val-Arg-AMC (carbobenzyloxyvalinylvalinylarginylaminomethylcoumarin). The assays were initiated at 25° C. by addition of enzyme to 2 mL of assay buffer containing the substrate and the various inhibitors (30-0.001 μM). The increase in fluorescence at 460 nm with excitation at 380 nm was followed with time. Inactivation of cathepsin S was indicated by a downward curve in the increase in fluorescence with time. In the absence of inhibitors, the enzymatic production of free AMC was linear throughout the time course of inactivation examined. Data points were collected over at least 3 half-times of inactivation. The inhibition progress curves were analyzed using non-linear curve fitting software to compute the kobs values. Approximate second-order inactivation constants (kobs /[I]) were calculated for all compounds. For selected inhibitors, plots of 1/[I] vs. 1/kobs yielded the true constants kirr, KI, and kirr /KI, and were corrected for the presence of substrate by dividing KI (app.) by {1+[S]/Km}.
# [1] = molecular target: T2, Cathepsin B from human placenta (Homo sapiens, UniProt P07858); experiment: Inhibition of cathepsin B, Z-Arg-Arg-AMC fluorescence progress curves; type: biochemical; conditions: for k/KI (kirr/KI): values without asterisk; for k/KI (kirr/KI) / kobs /[I]* (approximate second-order inactivation constant): 25° C., pH 6.2; for kobs /[I]* (approximate second-order inactivation constant): values marked *
# T2 construct: Cathepsin B from human placenta, obtained from Sigma; purchased Sigma; host or cells: human placenta (tissue)
# Procedure: Stock solutions of the various inhibitors (10 mM) were made in DMF; dilutions were made in the same solvent. Cathepsin B from human placenta, obtained from Sigma, was approximately 10 nM in the assay. The assay buffer contained 50 mM phosphate at pH 6.2, 2.5 mM dithiothreitol (DTT), and 2.5 mM ethylenediaminetetraacetic acid (EDTA). The substrate for cathepsin B was 50 μM Z-Arg-Arg-AMC (carbobenzyloxyarginylarginylaminomethylcoumarin). The assays were initiated at 25° C. by addition of enzyme to 2 mL of assay buffer containing the substrate and the various inhibitors (30-0.001 (μM). The increase in fluorescence at 460 nm with excitation at 380 nm was followed with time, and the assay was linear throughout the range observed. Inactivation of cathepsin B was indicated by a downward curve in the increase in fluorescence with time. In the absence of inhibitors, the enzymatic production of free AMC was linear throughout the time course of inactivation examined. Data points were collected over at least 3 half-times of inactivation, and in duplicate. The inhibition progress curves were analyzed using non-linear curve fitting software to compute the kobs values. Approximate second-order inactivation constants (kobs /[I]) were calculated for all compounds. For selected inhibitors, plots of 1/[I] vs. 1/kobs yielded the true constants kirr, KI, and kirr /KI, and were corrected for the presence of substrate by dividing KI (app.) by {1+[S]/Km }.
# [2] = test system: Trypanosoma brucei extracellular bloodstream forms; experiment: In vitro antiprotozoal activity, Trypanosoma brucei; type: cell-based
# Procedure: (§1) In this table, the in vitro antiprotozoal activities of the indicated compounds were measured as percentage inhibition of Leishmania donovani amastigote infecteda mouse peritoneal macrophages, Trypanosoma cruzi amastigote infected macrophages, and Trypanosoma brucei extracellular bloodstream forms.
# [3] = test system: Trypanosoma cruzi amastigote infected macrophages; experiment: In vitro antiprotozoal activity, Trypanosoma cruzi; type: cell-based
# Procedure: as §1
# [4] = test system: Leishmania donovani amastigote infected mouse peritoneal macrophages; experiment: In vitro antiprotozoal activity, Leishmania donovani; type: cell-based; design: key to percentage inhibition, L. donovani: the term "T" indicates the molecule to have displayed cytotoxicity
# Procedure: as §1
# cruzain, from T. cruzi = cruzain, from T. cruzi (Trypanosoma cruzi, UniProt P25779); experiment: Inhibition of cruzain, as for cathepsin L; type: biochemical
# Procedure: (§2) Stock solutions of the various inhibitors (10 mM) were made in DMF; dilutions were made in the same solvent. Cathepsin L from rat liver, (see Mason et al., Biochem. J. 226:233-241 (1985)) was approximately 1 nM in the assay. The assay buffer contained 50 mM phosphate at pH 6:2, 2.5 mM dithiothreitol (DTT), and 2.5 mM ethylenediaminetetraacetic acid (EDTA). The substrate for cathepsin L was 5 μM Z-Phe-Arg-AMC (carbobenzyloxyphenylalanylarginylaminomethylcoumarin). The assays were initiated at 25° C. by addition of enzyme to 2 mL of assay buffer containing the substrate and the various inhibitors (30-0.001 μM). The increase in fluorescence at 460 nm with excitation at 380 nm was followed with time. Inactivation of cathepsin L was indicated by a downward curve in the increase in fluorescence with time. In the absence of inhibitors, the enzymatic production of free AMC was linear throughout the time course of inactivation examined. Data points were collected over at least 3 half-times of inactivation. The inhibition progress curves were analyzed using non-linear curve fitting software to compute the kobs values. Approximate second-order inactivation constants (kobs /[I]) were calculated for all compounds. For selected inhibitors, plots of 1/[I] vs. 1/kobs yielded the true constants kirr, KI, and kirr/KI and were corrected for the presence of substrate by dividing KI (app.) by (1+[S]/Km).
# Inhibition of cruzain, from T. cruzi, (see Eakin et at., J. Biol. Chem. 268(9): 6115-6118 (1993)) proceeded exactly as for cathepsin L, outlined above, using an enzyme concentration of 1 nM.
# [5] = molecular target: T3, Cathepsin L from rat liver (Rattus norvegicus, UniProt P07154); experiment: Inhibition of cathepsin L, Z-Phe-Arg-AMC fluorescence progress curves; type: biochemical; conditions: for kobs /[I]* (approximate second-order inactivation constant): values marked *; for kobs /[I]* (approximate second-order inactivation constant) / k/KI (kirr/KI): 25° C., pH 6.2; for Ki: corrected for substrate; for k/KI (kirr/KI): values without asterisk
# T3 construct: Cathepsin L from rat liver; from tissue; host or cells: rat liver
# Procedure: as §2
# T3 sequence (P07154 114-288 limits assumed): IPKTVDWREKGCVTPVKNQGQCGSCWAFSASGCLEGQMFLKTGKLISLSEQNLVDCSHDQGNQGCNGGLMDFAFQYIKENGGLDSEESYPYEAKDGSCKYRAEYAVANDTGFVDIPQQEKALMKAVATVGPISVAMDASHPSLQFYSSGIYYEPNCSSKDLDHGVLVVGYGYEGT
# T3 sequence (P07154 291-334 limits assumed): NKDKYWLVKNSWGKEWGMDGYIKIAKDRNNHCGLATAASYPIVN
# T1 sequence (P25774 115-331): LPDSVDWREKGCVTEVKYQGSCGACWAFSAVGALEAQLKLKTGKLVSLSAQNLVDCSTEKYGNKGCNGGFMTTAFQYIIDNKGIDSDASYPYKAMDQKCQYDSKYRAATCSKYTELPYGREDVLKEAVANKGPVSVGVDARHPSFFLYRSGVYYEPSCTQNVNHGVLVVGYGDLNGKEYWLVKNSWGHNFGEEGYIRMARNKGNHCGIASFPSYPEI
# Sequence of cruzain, from T. cruzi (P25779 123-337 limits assumed): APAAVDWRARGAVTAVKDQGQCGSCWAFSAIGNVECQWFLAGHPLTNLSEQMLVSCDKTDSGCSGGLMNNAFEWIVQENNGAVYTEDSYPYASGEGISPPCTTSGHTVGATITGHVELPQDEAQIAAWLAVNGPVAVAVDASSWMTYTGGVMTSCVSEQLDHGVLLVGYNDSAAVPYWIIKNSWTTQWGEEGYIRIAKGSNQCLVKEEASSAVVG
compound,measurement,setting,value
CC(C)C[C@H](NC(=O)OCc1ccccc1)C(=O)N[C@H](/C=C/S(=O)(=O)c1ccccc1)Cc1ccccc1,kobs /[I]* (approximate second-order inactivation constant),"Cloned cathepsin S; 25° C., pH 6.5","3,000,000 M^-1 sec^-1"
"CC(=O)N[C@@H](CC(C)C)C(=O)N[C@@H](CC(C)C)C(=O)N[C@H](/C=C/S(=O)(=O)c1ccccc1)Cc1ccc(O)cc1 [Ac-Leu-Leu-TyrVSPh, (S)-(E)-3-(acetylleucylleucyl)amino-4-(4-hydroxyphenyl)-1-phenylsulfonyl-1-butene]",kinact/KI,"Cloned cathepsin S; 25° C., pH 6.5",100000 M⁻¹ s⁻¹
CC(=O)NC(Cc1ccc(O)cc1)C(=O)NC(Cc1ccc(O)cc1)C(=O)NC(C(=O)NC(C)C(=O)NC(C=CS(C)(=O)=O)CC(=O)O)C(C)C (stereo not drawn) [Ac-Tyr-Tyr-Val-Ala-AspVSMe] (Ac-YYVA-X1; configuration not given here),k/KI (kirr/KI),[1],0 M⁻¹ s⁻¹
"CN(C)S(=O)(=O)N[C@@H](Cc1ccccc1)C(=O)N[C@H](/C=C/S(=O)(=O)c1ccccc1)CCc1ccccc1 [DimSam-Phe-HphVSPh, (S)-(E)-3-(dimethylsulfamoylphenylalanyl)amino-5-phenyl-1-phenylsulfonyl-1-pentene]",kinact/KI,"Cloned cathepsin S; 25° C., pH 6.5",920000 M⁻¹ s⁻¹
Cl.NC(C=CS(=O)(=O)c1ccccc1)CCCCNC(=O)OCc1ccccc1 (stereo not drawn) [HCl.(e-Z)LysVSPh],"ED50, T. brucei",[2],8 µM
same,"percentage inhibition, T. brucei",[2]; 1 uM,7.6%
same,"percentage inhibition, T. brucei",[2]; 3 uM,13%
same,"percentage inhibition, T. brucei",[2]; 10 uM,39.3%
same,"percentage inhibition, T. brucei",[2]; 30 uM,100%
same,"percentage inhibition, T. brucei",[2]; 90 uM,100%
same,"ED50, T. cruzi",[3],18.34 µM
same,"percentage inhibition, T. cruzi",[3]; 3 uM,2.7%
same,"percentage inhibition, T. cruzi",[3]; 10 uM,10.6%
same,"percentage inhibition, T. cruzi",[3]; 30 uM,82.8%
same,"percentage inhibition, T. cruzi",[3]; 90 uM,97.8%
same,"percentage inhibition, L. donovani",[4]; 3 uM,100%
same,"percentage inhibition, L. donovani",[4]; 10 uM,100%
same,"percentage inhibition, L. donovani",[4]; 30 uM,T
same,"percentage inhibition, L. donovani",[4]; 90 uM,T
Cl.NC(Cc1ccccc1)C(=O)NC(C=CS(=O)(=O)c1ccccc1)CCc1ccccc1 (stereo not drawn) [HCl.Phe-HphVSPh],kobs /[I]* (approximate second-order inactivation constant),"cruzain, from T. cruzi; values marked *","14,600 M^-1 sec^-1"
same,kobs /[I]* (approximate second-order inactivation constant),"Cloned cathepsin S; 25° C., pH 6.5","35,000 M^-1 sec^-1"
CS(=O)(=O)/C=C/[C@@H](N)Cc1ccccc1.Cl [HCl.PheVSMe],"percentage inhibition, T. brucei",[2]; 3 uM,0%
same,"percentage inhibition, T. brucei",[2]; 10 uM,0%
same,"percentage inhibition, T. brucei",[2]; 30 uM,0%
same,"percentage inhibition, T. brucei",[2]; 90 uM,0%
same,"percentage inhibition, T. cruzi",[3]; 3 uM,0%
same,"percentage inhibition, T. cruzi",[3]; 10 uM,0%
same,"percentage inhibition, T. cruzi",[3]; 30 uM,0%
same,"percentage inhibition, T. cruzi",[3]; 90 uM,17.3%
same,"percentage inhibition, L. donovani",[4]; 3 uM,100%
same,"percentage inhibition, L. donovani",[4]; 10 uM,100%
same,"percentage inhibition, L. donovani",[4]; 30 uM,100%
same,"percentage inhibition, L. donovani",[4]; 90 uM,100%
"O=C(N[C@@H](/C=C/S(=O)(=O)c1ccccc1)CCc1ccccc1)C(Cc1ccccc1)NC(=O)N1CCOCC1 (stereo partly drawn) [Mu-Phe-D-HphVSPh, (R)-(E)-3-(4-morpholinecarbonylphenylalanyl)amino-5-phenyl-1-phenylsulfonyl-1-pentene]",kobs /[I]* (approximate second-order inactivation constant),"Cloned cathepsin S; 25° C., pH 6.5","68,500 M^-1 sec^-1"
same,kobs /[I]* (approximate second-order inactivation constant),[5],"4,500 M^-1 sec^-1"
"O=C(/C=C/[C@H](CCc1ccccc1)NC(=O)C(Cc1ccccc1)NC(=O)N1CCOCC1)NC(Cc1ccccc1)C(=O)O (stereo partly drawn) [Mu-Phe-HphVAM-PheOH, (S)-(E)-(N-phenylalanine)-4-(4-morpholinecarbonylphenylalanyl)amino-6-phenyl-2-hexenamide]",kobs /[I]* (approximate second-order inactivation constant),[1],600 M⁻¹ s⁻¹
same,kobs /[I]* (approximate second-order inactivation constant),"Cloned cathepsin S; 25° C., pH 6.5","10,600 M^-1 sec^-1"
"O=C(NCCCC[C@@H](C=C(F)S(=O)(=O)c1ccccc1)NC(=O)[C@H](Cc1ccccc1)NC(=O)N1CCOCC1)OCc1ccccc1 [Mu-Phe-Lys(Z)fVSPh, (S)-7-(benzyloxycarbonyl)amino-3-(4-morpholinecarbonylphenylalanyl)amino-1-fluoro-1-phenylsulfonyl-1-heptene]",kobs /[I]* (approximate second-order inactivation constant),[1],"2,000 M^-1 sec^-1"
same,kobs /[I]* (approximate second-order inactivation constant),"Cloned cathepsin S; 25° C., pH 6.5","10,700 M^-1 sec^-1"
"Br.CCOC(=O)/C=C/[C@H](CCCCN)NC(=O)[C@H](Cc1ccccc1)NC(=O)N1CCOCC1 [Mu-Phe-LysVEOEt.HBr, (S)-(E)-Ethyl 8-amino-4-(4-morpholinecarbonylphenylalanyl)amino-2octenoate hydrobromide]",kobs /[I]* (approximate second-order inactivation constant),[1],650 M⁻¹ s⁻¹
same,kirr,[5],0.085 s⁻¹
same,Ki,[5],24.2 µM
same,k/KI (kirr/KI),[5],3500 M⁻¹ s⁻¹
(S)-(E)-3-(4-morpholinecarbonyl-2-naphthylalanyl)amino-5-phenyl-1-phenylsulfonyl-1-pentene [Mu-Np-HphVSPh],kobs /[I]* (approximate second-order inactivation constant),[1],"86,000 M^-1 sec^-1"
same,k/KI (kirr/KI),"cruzain, from T. cruzi; values without asterisk","218,000 M^-1 sec^-1"
same,kobs /[I]* (approximate second-order inactivation constant),[5],"1,000,000 M^-1 sec^-1"
(S)-(E)-3-(4-morpholinecarbonylphenylalanyl)amino-1-(4-bromophenylsulfonyl)-5-phenyl-1-pentene [Mu-Phe-HphVSPhBr],kobs /[I]* (approximate second-order inactivation constant),[1],"15,500 M^-1 sec^-1"
(S)-(E)-Ethyl8-(benzyloxycarbonyl)amino-4-(4-morpholinecarbonylphenylalanyl)amino-2-octenoate [Mu-Phe-Lys(Z)VEOEt],kirr,[1],0.13 s⁻¹
same,Ki,[1]; corrected for substrate,32 µM
same,k/KI (kirr/KI),[1],4100 M⁻¹ s⁻¹
same,kirr,Cloned cathepsin S,0.13 s⁻¹
same,Ki,Cloned cathepsin S; corrected for substrate,1300 nM
same,k/KI (kirr/KI),"Cloned cathepsin S; values without asterisk, 25° C., pH 6.5","100,000 M^-1 sec^-1"
same,kirr,[5],0.87 s⁻¹
same,Ki,[5],6.2 µM
same,k/KI (kirr/KI),[5],"13,900 M^-1 sec^-1"
Boc-phenylalanyl-homophenylalanyl-p-nitrostyryl,kobs /[I]* (approximate second-order inactivation constant),"Cloned cathepsin S; 25° C., pH 6.5","40,100 M^-1 sec^-1"
